Residues, ends and D or L forms follow the SMILES beside them. No end group written: not given here. *: point of attachment. Myristoyl = CCCCCCCCCCCCCC(=O)*
Experiments:
IRK [1] = target: T1, IRK (Homo sapiens, UniProt P06213); conditions: cited from earlier work
Akt1 = assay: Akt kinase activity immunoprecipitated from HEK cells, Crosstide substrate; assay type: cell-based; conditions: genistein 50 μM added 30 minutes prior to peptide or insulin
Procedure: Cells were serum starved overnight, and treated with myristoylated peptides and insulin as in FIG. 5A. Genistein (50 μM) was added to cells 30 minutes prior to treatment with peptide or insulin. Akt1 was immunoprecipitated from the lysates and kinase activity was measured using Crosstide as substrate.
Thus, Akt kinase activity was measured in cells loaded with either P2 or the scrambled P2 peptide, P2sc. Cell lysates were immunoprecipitated with anti-Akt antibody and immunoprecipitates were examined for phosphorylation of crosstide, an Akt specific substrate.

[2] = target: T2, IRK (insulin receptor β-subunit) (Homo sapiens, UniProt P06213); assay: IRK kinase activity in vitro towards IRS peptide substrate; assay type: biochemical; conditions: 20 μM peptide
T2 construct: Insulin receptor β-subunit (IRK); purchased Enzo Life Sciences (Farmingdale, N.Y.)
Procedure: (§1) FIG. 4A depicts P2 stimulate IRK autophosphorylation in vitro. IRK was incubated in vitro with 20 μM of peptide P2 (KYCCSRK (SEQ ID NO: 2)), peptide a (KKRILHC (SEQ ID NO: 5)) or peptide b (KRNRYLSF (SEQ ID NO: 6)) and [^32P]-ATP. The [^32P] incorporation was quantified. FIG. 4B depicts P2 stimulate IRK kinase activity in vitro; identification of IRK inhibitory peptide. A similar assay was performed as in FIG. 4A, except that the IRK peptide substrate was included. FIG. 4C depicts P2 is both a substrate and activator of IRK kinase activity in vitro. Assays using sequence variant (P2Y-F; KFCCSRK (SEQ ID NO: 9)) of P2 were performed as in FIG. 4B. FIG. 4D depicts P2 stimulates IRK kinase activity in the cell; peptide “a” is an inhibitor. […] The activity as measured in four livers of P2 injected and four control mice is shown.
(§2) Purified IRK was assayed as previously (Lerner-Marmarosh et al., 2005, PNAS 102:7109-14), using 300 μM IRS-1 Y608 peptide substrate. IRK autophosphorylation was determined as described earlier (Gibbs et al., 2012, J Biol Chem 287:1066-79). hBVR-based peptides (20 μM) were added as activators or inhibitors. […] Incorporation of ^32P was determined by liquid scintillation counting. […] Immunoprecipitates bound to protein A/G-agarose were washed in lysis buffer, followed by IRK assay buffer, and kinase activity was measured as before (Lerner-Marmarosh et al., 2005, PNAS 102:7109-14). […]

[3] = system: human skeletal muscle (HSKM) cells; assay: 3H-deoxyglucose uptake in human skeletal muscle cells; assay type: cell-based; conditions: 2 hours treatment, 20 μM peptide (insulin added with 3H-deoxyglucose)
Procedure: Insulin, when used, was added at the same time as 3H-deoxyglucose. * P<0.05, ** P<0.01. […] HSKM cells were starved overnight as in described in FIG. 2A. […] Glucose uptake was measured as in A. […] Treatment with peptide nanoparticles was for 1 h. Glucose uptake was measured as described in FIG. 2A. Cultures of HEK293 were maintained in DMEM with 10% FBS. Cells were starved overnight in medium with 0.1% FBS. When used, insulin was added to serum-starved cultures at 100 nM. Human skeletal muscle cells were maintained in 1:1 DMEM:F12 medium containing 15% FBS. […] Cells were washed 3 times with cold PBS and solubilized in 150 μl 50 mM NaOH. Radioactivity was measured and normalized to protein concentration. Assessments were made in triplicate and experiments were repeated three times.

HepG2 cells = assay: 3H-deoxyglucose uptake in HepG2 cells; assay type: cell-based; conditions: starved overnight, 1 h treatment
Procedure: FIG. 2A depicts Nanoparticle delivery of peptide P2 to human skeletal muscle (HSKM) cells stimulates glucose uptake. HSKM cells were grown in low glucose, low FBS medium overnight, then media was replaced with PBS containing 1% BSA for 1 h. Cells were pretreated for 2 hours with 20 μM myristoylated P2 or with 10 or 20 μM P2-nanoparticles, followed by measuring 3H-deoxyglucose uptake over a 15 minutes interval. Insulin, when used, was added at the same time as 3H-deoxyglucose. * P<0.05, ** P<0.01. FIG. 2B depicts a time course of glucose uptake stimulation by P2. HSKM cells were starved overnight as in described in FIG. 2A. Medium was changed to glucose-free DMEM with 1% BSA for 1 hour prior to treatment with 20 μM myr-P2 or with P2-nanoparticles for the indicated times. Glucose uptake was measured as in A. FIG. 2C depicts P2-nanoparticles affect glucose uptake in HepG2 cells. HepG2 cells were starved in low glucose DMEM with 0.1% FBS overnight. Treatment with peptide nanoparticles was for 1 h. Glucose uptake was measured as described in FIG. 2A.
Glucose uptake was assessed using 2-deoxy 1-[^3H] glucose as described previously (Lerner-Marmarosh et al., 2005, PNAS 102:7109-14), with modification. […] Radioactivity was measured and normalized to protein concentration. […]

GSK3β = GSK3β phosphorylation in HEK cells (Western blot); assay type: cell-based; conditions: 40 μM myristoylated peptide 15 minutes or insulin 100 nM
Procedure: FIG. 6A depicts Phosphorylation of GSK3α in P2-stimulated cells. Lysates of cells treated as in FIG. 5A were analyzed by Western blot; the blot was probed sequentially with antibodies to phospho-GSK3α-S21 and GSK3α. The signals were quantified by densitometry. FIG. 6B depicts Phosphorylation of GSK3β in P2-stimulated cells. Identical samples to those in FIG. 6A were probed with anti-phospho-GSK3β-S9 antibody, followed by anti-GSK3β. […] Cells were harvested, lysed in buffer with triton ×100, and whole cell lysates were analyzed for phosphorylated Akt (T^308, S^473) or GSK3 (α-S^21, β-S^9) species by Western blotting. Each blot was stripped and probed with anti-Akt1 or anti GSK3α or GSK3β antibody, as appropriate, to control for loading.

GSK3α = GSK3α phosphorylation in HEK cells (Western blot); assay type: cell-based; conditions: 40 μM myristoylated peptide 15 minutes or insulin 100 nM
Procedure: FIG. 6A depicts Phosphorylation of GSK3α in P2-stimulated cells. Lysates of cells treated as in FIG. 5A were analyzed by Western blot; the blot was probed sequentially with antibodies to phospho-GSK3α-S21 and GSK3α. The signals were quantified by densitometry. FIG. 6B depicts Phosphorylation of GSK3β in P2-stimulated cells. Identical samples to those in FIG. 6A were probed with anti-phospho-GSK3β-S9 antibody, followed by anti-GSK3β.
HEK cells were incubated in low glucose DMEM with 0.1% FBS, overnight. Cells were treated with 40 μM myristoylated peptide for a total of 15 min; insulin or IGF-1, if used, were included for the final 10 minutes. Cells were harvested, lysed in buffer with triton ×100, and whole cell lysates were analyzed for phosphorylated Akt (T^308, S^473) or GSK3 (α-S^21, β-S^9) species by Western blotting. Each blot was stripped and probed with anti-Akt1 or anti GSK3α or GSK3β antibody, as appropriate, to control for loading.

[4] = target: T2, IRK (insulin receptor β-subunit); assay: IRK autophosphorylation in vitro ([32P]-ATP); assay type: biochemical; conditions: 20 μM peptide
Procedure: as §1, §2

IRK [5] = target: T1, IRK; assay: IRK kinase activity immunoprecipitated from peptide-treated HEK cells; assay type: cell-based; design: IRK was immunoprecipitated from cell lysates and assayed using the IRS peptide as substrate; endogenous in cells; host or cells: HEK293; conditions: 40 μM myristoylated peptide, 15 minutes
Procedure: as §1, §2

CCCCCCCCCCCCCC(=O)N[C@@H](CCCCN)C(=O)N[C@@H](Cc1ccc(O)cc1)C(=O)N[C@@H](CS)C(=O)N[C@@H](CS)C(=O)N[C@@H](CO)C(=O)N[C@@H](CCCNC(=N)N)C(=O)N[C@@H](CCCCN)C(=O)O [P2, myr-KYCCSRK (SEQ ID NO: 2)] (Myristoyl-KYCCSRK-OH; N-terminus and C-terminus assumed)
Km of the kinase (IRK [1]): without changing Km

O=c1c(-c2ccc(O)cc2)coc2cc(O)cc(O)c12 [genistein]
Akt activation by either insulin or P2 (Akt1): prevented Akt activation

KFCCSRK (SEQ ID NO: 9) [P2Y-F]
effect on IRK kinase activity / substrate phosphorylation [2]: significant decrease in substrate phosphorylation

insulin
glucose uptake [3]: stimulated glucose uptake to about the same extent
glucose uptake (HepG2 cells): more robust response
phosphorylation of GSK3β at S9 (GSK3β): enhanced phosphorylation
phosphorylation of GSK3α at S21 (GSK3α): enhanced phosphorylation

myr-KKRILHC (SEQ ID NO: 5) (Myristoyl-KKRILHC) [peptide (a), BVR based peptide]
IRK autophosphorylation ([32P] incorporation) [4]: did not lead to increased [^32P] incorporation
effect on IRK kinase activity in the cell (IRK [5]): potent inhibitor of the kinase

myr-KRNRYLSF (SEQ ID NO: 6) (Myristoyl-KRNRYLSF) [peptide (b), BVR based peptide]
IRK autophosphorylation ([32P] incorporation) [4]: did not lead to increased [^32P] incorporation
